Here are results for 1 substance from US20260327263A1, “Anti-Bacterial Peptides” (priority 2023, published 2026).

Where no end group is shown, it is not given here.

Series [1] in a line: Comparison of AMPs in clinical trial with V8LQ19L (Table 13). The settings on record: ✓ / X.
For series [2], the system named is Staphylococcus aureus (SA). Put plainly: Antimicrobial resistance evolution assay, SA. Type of series: cell-based. The settings on record: serial passaging; resistance = >4-fold MIC change. From the text:
The development of antimicrobial resistance is defined by greater than a 4-fold change to their initial minimum inhibitory concentration (MIC) at day 1. Exemplary bacteria strains Pseudomonas aeruginosa (PA) and Staphylococcus aureus (SA) are subjected to continuous daily serial passaging over several days, with treatment of exemplary variant peptides E1AM2 (SEQ ID NO: 2) and Q19L (SEQ ID NO: […]) at subinhibitory concentrations. […] The treatments were discontinued when the MIC increased by more than four-fold from the initial MIC or when MIC reached >100 μM.
Briefly, sequential passaging of PA, and SA cells was done with sub-inhibitory concentrations of antibiotics or E1AM2 up to 4 weeks. The cells grown in those concentrations of antibiotics or peptides were diluted to A600 nm (OD600) of ~0.2 and serially passaged daily with the same concentrations at 37° C. with agitation at 24 h intervals.

Series [3] relates to fibroblasts (HFF-1). Put plainly: Cell proliferation assay, HFF-1 fibroblasts. The format is cell-based. The following applies: 24 h.
Series [4] relates to human keratinocytes (HaCaT). Description: Cell proliferation assay, HaCaT keratinocytes. Type of series: cell-based. The procedure: Wound closure was compared with the untreated samples (circle, red highlight). For improved clarity, error bars have been omitted from this representation. […] Each value is the mean±SD (n=3). Statistical significance was assessed using ANOVA for multiple comparisons (Dunnett's multiple comparisons test). **** p<0.0001, *** p<0.001, ** p<0.01, *p<0.05, ns denotes nonsignificance, p >0.05.
CyQUANT™ Direct Cell Proliferation Assay (ThermoFisher Scientific, Catalogue) was performed as per manufacturer's instructions to determine the safety of the peptides to human keratinocytes. […] The fluorescence intensity and number of stained cells were determined using the LionHeart FX Automated Microscope (BioTek, VT, USA).

The test system of series [5] is critical and high priority pathogens (WHO). Description: Antibacterial effect against WHO critical and high priority pathogens. Type of series: cell-based. The settings on record: FIG. 10.

As for KKLLKKWLKLSKKALKLALSL-NH2 [V8LQ19L], in series [1], the Broad spectrum activity result is reported as “✓” and the Healing support entry is recorded as “✓”. The “development of antimicrobial resistance, SA” value in series [2] is “effective in preventing the acquisition of AMR”. Also, the HFF-1 proliferation result in series [3] (certain concentrations) was “enhanced proliferation”. For the same substance, the “cytotoxicity to HFF-1” value in series [3] (up to highest tested concentrations (peptide), 3% (H2O2)) is on record as “noncytotoxic”. Further, the “Cytotoxicity at high concentration (100 μM)” value in series [4] (100 μM, cell line not named in Table 15) was “Non-cytotoxic”. Besides, the “cytotoxicity to HaCaT” value in series [4] (24 h, up to highest tested concentrations (peptide), 3% (H2O2)) is recorded as “noncytotoxic”. Further, the “antibacterial effect against WHO priority pathogens” value in series [5] is reported as “potent fast-acting, broad-spectrum antibacterial effect”. In addition, in series [5] (compared to pexiganan and antibiotics), the “MIC values against WHO priority pathogens (in words)” value is “the lowest minimum inhibitory concentration (MIC) values”.
